Experimental data published in US20230111914A1, “SYNTHETIC TRITERPENOIDS WITH NITROGEN-BASED SUBSTITUENTS AT C-17 AND METHODS OF USE THEREOF” (REATA PHARMACEUTICALS, INC., priority 2019, published 2023).
Values joined by “and” are separate entries in the source; they are usually repeats but may differ in a detail not shown here. Identical values can stand only once. Like-named read-outs stand apart in the source and are kept apart here. Marks after values point to notes of the source that are not given here.

Columns and labels:
[1] = system: IFNγ-induced NO production in RAW 264.7 cells; experiment: Nitric oxide suppression assay (IFNγ-induced NO production, Griess nitrite readout); assay type: cell-based, mouse; details: for IC50: Mus musculus, RAW264.7, RAW 264.7 cells, read-out: NO IC50
[2] = target: T1, CYP3A4 (Homo sapiens, UniProt P08684); experiment: CYP3A4 (midazolam) inhibition in human liver microsomes; assay type: in vitro ADME; details: probe midazolam; human liver microsomes 0.1 mg/mL, midazolam substrate, 1 μM test compound, 37° C. 10 min
T1 construct: containing 0.1 mg/mL human liver microsomes; from tissue; host or cells: human liver microsomes
Protocol: Methods. Several compounds were evaluated for CYP3A4 (midazolam) inhibition in human liver microsomes at 1 μM. CYP3A4 inhibition was tested using an in vitro assay as generally described in Dierks et al. (Drug Metabolism Deposition, 29:23-29, 2001, which is incorporated by reference herein). Each sample, containing 0.1 mg/mL human liver microsomes, […] as substrate, and 1 μM of test compound, was incubated at 37° C. for 10 min. Following incubation, the metabolite 1-hydroxymidazolam was measured using HPLC-MS/MS. Peak areas corresponding to the metabolite of the substrate were recorded. The percent of control activity was then calculated by comparing the peak area obtained in the presence of the test compound to that obtained in the absence of the test compound. Subsequently, the percent inhibition was calculated by subtracting the percent control activity from 100 for each compound.

[3] = system: AREc32 reporter cell line (luciferase reporter under eight copies of the rat GSTA2 ARE sequence); experiment: AREc32 luciferase reporter activation; assay type: cell-based, human; details: for EC (2-fold): Homo sapiens, Arec32, concentration that increases the luminescence signal 2-fold above vehicle, 19 h treatment, read-out: AREc32 EC2X (Mean ± SD); for AREc32 Relative to CC in Same Experiment (Mean ± SD): average of ratios from three replicate experiments
[4] = 2 h pretreatment, 20 ng/mL interferon gamma 24 h, average of trials per footnote

T1 sequence (P08684 whole entry): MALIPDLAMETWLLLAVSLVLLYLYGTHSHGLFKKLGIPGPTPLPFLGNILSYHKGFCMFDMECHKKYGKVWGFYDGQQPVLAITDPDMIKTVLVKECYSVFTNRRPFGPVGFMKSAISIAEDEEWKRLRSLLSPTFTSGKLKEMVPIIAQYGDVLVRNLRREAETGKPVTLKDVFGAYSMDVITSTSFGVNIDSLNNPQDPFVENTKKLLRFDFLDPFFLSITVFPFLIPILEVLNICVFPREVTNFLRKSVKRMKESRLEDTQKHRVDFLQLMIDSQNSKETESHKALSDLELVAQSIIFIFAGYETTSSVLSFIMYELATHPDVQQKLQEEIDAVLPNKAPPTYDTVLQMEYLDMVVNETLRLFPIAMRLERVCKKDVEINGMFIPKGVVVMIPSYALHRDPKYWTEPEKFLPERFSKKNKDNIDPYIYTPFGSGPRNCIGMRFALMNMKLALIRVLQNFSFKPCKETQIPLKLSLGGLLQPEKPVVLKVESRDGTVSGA

Row | Structure (SMILES) | NO IC50 Rel. to RTA 402 [1] | IC50 [1, 4] [nM] | inhibition at 10 min, 1 µM [2] [%] | AREc32 EC2X Relative to RTA 402 (Mean ± SD) [3] | EC (2-fold) [3] [µM] | AREc32 Relative to CC in Same Experiment (Mean ± SD) ([3]; comparison compound CC4) | times more active (NO IC50) than CC2 relative to RTA 402 [1] | AREc32 Relative to CC in Same Experiment (Mean ± SD) ([3]; comparison compound CC2) | times more active (NO IC50) than CC4 relative to RTA 402 [1] | times more active (NO IC50) than 63229 relative to RTA 402 [1] | times more active (NO IC50) than 63236 relative to RTA 402 [1] | times more active (NO IC50) than 63866 relative to RTA 402 [1] | IC50 ([1]; interferon gamma) [nM]
1 | CC1(C)CC[C@]2(n3cc(C(F)F)nn3)CC[C@]3(C)[C@H](C(=O)C=C4[C@@]5(C)C=C(C#N)C(=O)C(C)(C)[C@@H]5CC[C@]43C)[C@@H]2C1 [Compound T44] | 1.07 ± 0.11^d fold | 4.39 ± 0.73 | 29.1 | 0.9 ± 0.15^f fold | 0.0106 ± 0.00083 | 0.387 ± 0.037 | – | – | – | – | – | – | –
2 | Cc1cn(C[C@]23CCC(C)(C)C[C@H]2[C@H]2C(=O)C=C4[C@@]5(C)C=C(C#N)C(=O)C(C)(C)[C@@H]5CC[C@@]4(C)[C@]2(C)CC3)nn1 [Compound T48] | 1.19 fold and 1.19 ± 0.18^e fold | 2.5 | 29.8 | 1.3 ± 0.21^g fold | 0.0129 ± 0.00143 | – | roughly 1.3 times | 0.802 ± 0.050 | – | – | – | – | –
3 | CC1(C)CC[C@]2(CN3CCC3=O)CC[C@]3(C)[C@H](C(=O)C=C4[C@@]5(C)C=C(C#N)C(=O)C(C)(C)[C@@H]5CC[C@]43C)[C@@H]2C1 [Compound T10] | 0.45 ± 0.08^g fold | 1.12 ± 0.44 | 33.2 | 0.5 ± 0.13^c fold | 0.0052 ± 0.00249 | – | – | – | – | – | – | – | –
4 | CC1(C)CC[C@]2(n3ccnc3)CC[C@]3(C)[C@H](C(=O)C=C4[C@@]5(C)C=C(C#N)C(=O)C(C)(C)[C@@H]5CC[C@]43C)[C@@H]2C1 [Compound T37] | 1.37 ± 0.26^e fold | 3.22 ± 1.52 | 86.5 | 2.1 ± 0.50^f fold | 0.0243 ± 0.0027 | 0.878 ± 0.094 | – | – | – | – | – | – | –
5 | CC1(C)CC[C@]2(Cn3cnnn3)CC[C@]3(C)[C@H](C(=O)C=C4[C@@]5(C)C=C(C#N)C(=O)C(C)(C)[C@@H]5CC[C@]43C)[C@@H]2C1 [Compound T18] | 0.76 fold and 0.76 ± 0.10^e fold | 0.92 | 46.5 | 0.6 ± 0.05^g fold | 0.0057 ± 0.00044 | – | more than twice as active | 0.356 ± 0.015 | – | – | – | – | –
6 | CC1(C)CC[C@]2(Cn3ccnc3)CC[C@]3(C)[C@H](C(=O)C=C4[C@@]5(C)C=C(C#N)C(=O)C(C)(C)[C@@H]5CC[C@]43C)[C@@H]2C1 [Compound T17] | – | – | 31.8 | 1.6 ± 0.22^g fold | 0.0162 ± 0.00085 | – | – | 1.009 ± 0.052 | – | – | – | – | –
7 | CC1(C)CC[C@]2(Cn3cccn3)CC[C@]3(C)[C@H](C(=O)C=C4[C@@]5(C)C=C(C#N)C(=O)C(C)(C)[C@@H]5CC[C@]43C)[C@@H]2C1 [Compound T20] | 1.93 ± 0.41^e fold | 3.28 ± 0.32 | 13.2 | – | 0.0153 ± 0.00084 | – | – | 0.954 ± 0.101 | – | – | – | – | –
8 | CC1(C)CC[C@]2(n3cc(CF)nn3)CC[C@]3(C)[C@H](C(=O)C=C4[C@@]5(C)C=C(C#N)C(=O)C(C)(C)[C@@H]5CC[C@]43C)[C@@H]2C1 [Compound T43] | 0.66 fold and 0.66 ± 0.09^d fold | 2.68 | 17 | 0.7 ± 0.15^f fold | 0.0085 ± 0.00055 | 0.299 ± 0.015 | – | – | roughly 3.7 times | – | – | – | –
9 | CC1(C)CC[C@]2(n3cnnn3)CC[C@]3(C)[C@H](C(=O)C=C4[C@@]5(C)C=C(C#N)C(=O)C(C)(C)[C@@H]5CC[C@]43C)[C@@H]2C1 [Compound T36] | 0.77 fold and 0.77 ± 0.16^e fold | 1.96 | 52.8 | 0.5 ± 0.13^f fold | 0.0056 ± 0.00059 | 0.191 ± 0.009 | – | – | roughly 3.1 times | greater than 98.5 times | – | – | –
10 | CC1(C)CC[C@]2(Cn3cncn3)CC[C@]3(C)[C@H](C(=O)C=C4[C@@]5(C)C=C(C#N)C(=O)C(C)(C)[C@@H]5CC[C@]43C)[C@@H]2C1 [Compound T21] | 0.57 ± 0.07^e fold | 1.18 ± 0.21 | 18.9 | 1.1 ± 0.20^g fold | 0.0105 ± 0.00165 | – | – | 0.649 ± 0.070 | – | – | – | – | –
11 | CC1(C)CC[C@]2(n3ccnn3)CC[C@]3(C)[C@H](C(=O)C=C4[C@@]5(C)C=C(C#N)C(=O)C(C)(C)[C@@H]5CC[C@]43C)[C@@H]2C1 [Compound T35] | 0.64 fold and 0.64 ± 0.04^e fold | 1.3 | 41.7 | 0.6 ± 0.18^f fold | 0.0071 ± 0.00073 | 0.262 ± 0.020 | – | – | ~4 times | – | – | – | –
12 | CC1(C)CC[C@]2(CN3CCCC3=O)CC[C@]3(C)[C@H](C(=O)C=C4[C@@]5(C)C=C(C#N)C(=O)C(C)(C)[C@@H]5CC[C@]43C)[C@@H]2C1 [Compound T11] | 0.58 ± 0.18^f fold | 1.08 ± 0.44 | 12.5 | 0.5 ± 0.08^d fold | 0.0067 ± 0.0017 | – | – | – | – | – | – | – | –
13 | CC1(C)CC[C@]2(CNC(=O)C3CC3)CC[C@]3(C)[C@H](C(=O)C=C4[C@@]5(C)C=C(C#N)C(=O)C(C)(C)[C@@H]5CC[C@]43C)[C@@H]2C1 [Compound T4] | 0.26 fold and 0.26 ± 0.08^h fold | 0.51 | 30.7 | 0.3 ± 0.08^b fold | 0.0032 ± 0.00032 | – | – | – | – | – | more than 220 times | roughly 4.5 times | –
14 | CNC(=O)c1cn([C@]23CCC(C)(C)C[C@H]2[C@H]2C(=O)C=C4[C@@]5(C)C=C(C#N)C(=O)C(C)(C)[C@@H]5CC[C@@]4(C)[C@]2(C)CC3)nn1 [Compound T41] | 1.19 ± 0.22^d fold | 4.96 ± 1.58 | 17.1 | 0.8 ± 0.16^f fold | 0.0094 ± 0.00135 | 0.320 ± 0.037 | – | – | – | – | – | – | –
15 | CC1(C)CC[C@]2(n3cncn3)CC[C@]3(C)[C@H](C(=O)C=C4[C@@]5(C)C=C(C#N)C(=O)C(C)(C)[C@@H]5CC[C@]43C)[C@@H]2C1 [Compound T33] | 1.35 ± 0.26^d fold | 5.62 ± 1.81 | 49 | 1.2 ± 0.18^f fold | 0.0136 ± 0.00131 | 0.484 ± 0.060 | – | – | – | – | – | – | –
16 | CC1(C)CC[C@]2(Cn3ccnn3)CC[C@]3(C)[C@H](C(=O)C=C4[C@@]5(C)C=C(C#N)C(=O)C(C)(C)[C@@H]5CC[C@]43C)[C@@H]2C1 [Compound T19] | 0.93 fold and 0.93 ± 0.22^e fold | 1.11 | 33.8 | – | 0.0084 ± 0.00126 | – | roughly 1.6 times | 0.522 ± 0.052 | – | – | – | – | 1.11
